In US20090325891A1, “Cartilage regeneration-promoting agent” (EISAI FOOD & CHEMICAL CO., LTD., priority 2006, published 2009):

Key:
[1] = Observation of general conditions and body weight; type: in vivo, rabbit
Experimental: After the formation of injury to articular cartilage, for the HT group, the product containing 20% by mass of hydroxytyrosol obtained in Production Example 1 was dissolved in tap water and administered using a water bottle at a rate of 500 mg/kg (100 mg/kg of hydroxytyrosol) per day for 21 days. After making sure that all of the water containing the drug was taken in, rabbits were fed with sterile tap water. The control was fed with sterile tap water ad libitum.
During the experimental period, diarrhea, appetite, and hair gloss or coat color of each rabbit were observed. In addition, body weight was measured per week.
In the same way as in Example 1, the cartilage regeneration-promoting effects were investigated with respect to hydroxytyrosol (100 mg/kg per day, HT group) and with respect to glucosamine hydrochloride (800 mg/kg per day, hereinafter, GAH group) for comparison. The control group was set in the same way as in Example 1.

Rabbit chondrocytes [2] = assay: Hyaluronic acid production in rabbit chondrocytes; type: cell-based; details: culture supernatant, per number of viable cells; 12 days culture; hydroxytyrosol 100 ng/ml, glucosamine hydrochloride 4 μg/ml
Experimental: The promoting effects of hydroxytyrosol and glucosamine hydrochloride on the production of glycosaminoglycan and on the production of hyaluronic acid in chondrocytes were evaluated. Rabbit chondrocytes (rabbit articular chondrocytes in primary culture, F-8, Cell Garage Co., Ltd.) were washed with phosphate buffered saline solution, and then cells were released with 0.05% trypsin-EDTA solution. The released chondrocytes were cultured in DMEM medium containing 10% FBS, 100 U/ml penicillin, 100 μg/ml streptomycin, 100 μM trisodium ascorbyl-2-phosphate (available from SIGMA-ALDRICH Corp.), and 25 mM HEPES (available from Invitrogen Corporation) at 37° C. in a humidified condition with 5% CO2. […] For each group after 12 days culture, the number of viable cells was determined by WST assay. The percentage of the amount of glycosaminoglycan or hyaluronic acid produced by each experimental group, relative to the control group, was calculated according to the following formula: ((amount produced by each experimental group/number of cells of each experimental group)×100)/(amount produced by the control group/number of cells of the control group). The supernatant of cultured cells of each group was collected, and the amount of hyaluronic acid produced was measured using a measurement kit (hyaluronic acid measurement kit, available from Seikagaku Corporation).

Rabbit chondrocytes [3] = assay: Glycosaminoglycan production in rabbit chondrocytes; type: cell-based; details: per number of viable cells; 12 days culture; hydroxytyrosol 100 ng/ml, glucosamine hydrochloride 4 μg/ml
Experimental: The promoting effects of hydroxytyrosol and glucosamine hydrochloride on the production of glycosaminoglycan and on the production of hyaluronic acid in chondrocytes were evaluated. Rabbit chondrocytes (rabbit articular chondrocytes in primary culture, F-8, Cell Garage Co., Ltd.) were washed with phosphate buffered saline solution, and then cells were released with 0.05% trypsin-EDTA solution. The released chondrocytes were cultured in DMEM medium containing 10% FBS, 100 U/ml penicillin, 100 μg/ml streptomycin, 100 μM trisodium ascorbyl-2-phosphate (available from SIGMA-ALDRICH Corp.), and 25 mM HEPES (available from Invitrogen Corporation) at 37° C. in a humidified condition with 5% CO2. […] For each group after 12 days culture, the number of viable cells was determined by WST assay. The percentage of the amount of glycosaminoglycan or hyaluronic acid produced by each experimental group, relative to the control group, was calculated according to the following formula: ((amount produced by each experimental group/number of cells of each experimental group)×100)/(amount produced by the control group/number of cells of the control group). The amount of glycosaminoglycan produced by the above-mentioned cultured cells was measured using a measurement kit (acid mucopolysaccharide quantification kit, available from Cell Garage Co., Ltd.).

Row | Compound | Body weight changes vs control group ([1]; Example 2) | general conditions ([1]; Example 2, HT 100 mg/kg per day, GAH 800 mg/kg per day) | amount of hyaluronic acid produced compared to the control group (Rabbit chondrocytes [2]) | amount of glycosaminoglycan produced compared to the control group (Rabbit chondrocytes [3]) | Body weight changes vs control group ([1]; rabbit, in vivo) | body weight change during test period vs control group ([1]; rabbit, in vivo) | general conditions (diarrhea, appetite, hair gloss or coat color) ([1]; rabbit, in vivo, 100 mg/kg)
1 | Cl.N[C@H]1C(O)O[C@H](CO)[C@@H](O)[C@@H]1O (stereo partly drawn) [GAH group, glucosamine hydrochloride, reference compound] | almost the same as that of the control group | change in general conditions was not observed | 127.4% | 147.0% | – | – | –
2 | OCCc1ccc(O)c(O)c1 [HT group, 2-(3,4-Dihydroxyphenyl)ethanol] | – | – | 82.9% | 119.8% | almost the same as that of the control group | significant difference was not observed | marked change was not observed
